Results taken from patent US20240336574A1 (LATIGO BIOTHERAPEUTICS, INC., priority 2021, published 2024).
Read-outs that look alike come from different tables or passages of the source.

Molecular target: T1, recombinant human NaV1.8 stably transfected HEK cells (Homo sapiens, UniProt Q9Y5Y9)
T1 construct: expressed in transfected cells; host or cells: HEK cells, stably transfected
Test: Compound profiling on NaV1.8, human NaV1.8 cell line, SyncroPatch384PE automated patch clamp assay (Example 115, third set of compounds, Table 27)
Format: cell-based
Settings: human NaV1.8 HEK cells, Table 27 (third set of compounds)
Procedure: Compound Profiling on NaV1.8 Human NaV1.8 Cell Line SyncroPatch384PE Assay
Compounds were tested on recombinant human NaV1.8 stably transfected HEK cells using the SyncroPatch384PE system, an automated patch clamp device. Cells were cultured at 37° C./5% CO2 in DMEM medium supplemented with GlutaMAX I, NEAA 1%, FBS 10% and seeded in T175 flasks. Cells were cultured at 30° C. one day prior to recording sodium currents. On the day of the recordings, cells were detached with 0.05% Trypsin-EDTA, resuspended in serum free DMEM medium and placed into the SyncroPatch384PE 6° C. pre-cooled cell hotel and shaken at 200 rpm. Intracellular solution (IC) contained, in mM: 10, CsCl; 110, CsF; 20, EGTA; 10, HEPES. Extracellular solution (EC) contained, in mM: 140, NaCl; 4, KCl; 5, Glucose; 10, HEPES; 2, CaCl2; 1, MgCl2. Washing solution contained, in mM: 40, NMDG; 100, NaCl; 4, KCl; 10, Glucose; 10, HEPES; 5, CaCl2; 1, MgCl2.
Compounds were tested in quadruplicates in 0.1% DMSO and 0.030% Pluronic Acid. Compounds were diluted 1:3.33 in EC solution to create a 10-point concentration response curve, spanning a final concentration range from 10-0.0002 μM in the assay plate. Compounds with low nM potency were retested using a lower concentration range (1-0.00002 μM). Each plate contained tetracaine and another tool compound as positive controls. Up to 7 compounds were tested on one plate. 150 μM tetracaine and 0.1% DMSO were used as high and low controls, respectively.
Whole cell patch clamp recordings were conducted according to Nanion's standard procedure for SyncroPatch384PE®. Cells were held at a holding potential of −120 mV. A depolarization step to 10 mV for 30 ms was applied (P1 measurement), followed by a hyperpolarization step to −100 mV for 100 ms. An inactivation step at −40 mV for 10 sec was applied before stepping to −100 mV for 20 ms, followed by a step to 10 mV for 30 ms (P2 measurement) and then back to −100 mV for 30 ms. Sweep interval was 15 sec with a sampling rate of 10 kHz. Following establishment of the whole-cell configuration in EC, two washing steps with reference buffer were performed to stabilize the baseline. Compounds were then applied by the SynchroPatch into each well and the current was recorded for five minutes in EC, followed by application of tetracaine to achieve full block at the end of the experiment. The potency of the compounds was assessed on two read-outs, resting state block (P1 measurement) or inactivated state block (P2 measurement) to obtain IC50 values. Values were normalized to high (tetracaine) and low (DMSO) controls.

[1] = inactivated state block (P2 measurement), read-out: P2 IC50
[2] = resting state block (P1 measurement), read-out: P1 IC50

T1 sequence (Q9Y5Y9 whole entry): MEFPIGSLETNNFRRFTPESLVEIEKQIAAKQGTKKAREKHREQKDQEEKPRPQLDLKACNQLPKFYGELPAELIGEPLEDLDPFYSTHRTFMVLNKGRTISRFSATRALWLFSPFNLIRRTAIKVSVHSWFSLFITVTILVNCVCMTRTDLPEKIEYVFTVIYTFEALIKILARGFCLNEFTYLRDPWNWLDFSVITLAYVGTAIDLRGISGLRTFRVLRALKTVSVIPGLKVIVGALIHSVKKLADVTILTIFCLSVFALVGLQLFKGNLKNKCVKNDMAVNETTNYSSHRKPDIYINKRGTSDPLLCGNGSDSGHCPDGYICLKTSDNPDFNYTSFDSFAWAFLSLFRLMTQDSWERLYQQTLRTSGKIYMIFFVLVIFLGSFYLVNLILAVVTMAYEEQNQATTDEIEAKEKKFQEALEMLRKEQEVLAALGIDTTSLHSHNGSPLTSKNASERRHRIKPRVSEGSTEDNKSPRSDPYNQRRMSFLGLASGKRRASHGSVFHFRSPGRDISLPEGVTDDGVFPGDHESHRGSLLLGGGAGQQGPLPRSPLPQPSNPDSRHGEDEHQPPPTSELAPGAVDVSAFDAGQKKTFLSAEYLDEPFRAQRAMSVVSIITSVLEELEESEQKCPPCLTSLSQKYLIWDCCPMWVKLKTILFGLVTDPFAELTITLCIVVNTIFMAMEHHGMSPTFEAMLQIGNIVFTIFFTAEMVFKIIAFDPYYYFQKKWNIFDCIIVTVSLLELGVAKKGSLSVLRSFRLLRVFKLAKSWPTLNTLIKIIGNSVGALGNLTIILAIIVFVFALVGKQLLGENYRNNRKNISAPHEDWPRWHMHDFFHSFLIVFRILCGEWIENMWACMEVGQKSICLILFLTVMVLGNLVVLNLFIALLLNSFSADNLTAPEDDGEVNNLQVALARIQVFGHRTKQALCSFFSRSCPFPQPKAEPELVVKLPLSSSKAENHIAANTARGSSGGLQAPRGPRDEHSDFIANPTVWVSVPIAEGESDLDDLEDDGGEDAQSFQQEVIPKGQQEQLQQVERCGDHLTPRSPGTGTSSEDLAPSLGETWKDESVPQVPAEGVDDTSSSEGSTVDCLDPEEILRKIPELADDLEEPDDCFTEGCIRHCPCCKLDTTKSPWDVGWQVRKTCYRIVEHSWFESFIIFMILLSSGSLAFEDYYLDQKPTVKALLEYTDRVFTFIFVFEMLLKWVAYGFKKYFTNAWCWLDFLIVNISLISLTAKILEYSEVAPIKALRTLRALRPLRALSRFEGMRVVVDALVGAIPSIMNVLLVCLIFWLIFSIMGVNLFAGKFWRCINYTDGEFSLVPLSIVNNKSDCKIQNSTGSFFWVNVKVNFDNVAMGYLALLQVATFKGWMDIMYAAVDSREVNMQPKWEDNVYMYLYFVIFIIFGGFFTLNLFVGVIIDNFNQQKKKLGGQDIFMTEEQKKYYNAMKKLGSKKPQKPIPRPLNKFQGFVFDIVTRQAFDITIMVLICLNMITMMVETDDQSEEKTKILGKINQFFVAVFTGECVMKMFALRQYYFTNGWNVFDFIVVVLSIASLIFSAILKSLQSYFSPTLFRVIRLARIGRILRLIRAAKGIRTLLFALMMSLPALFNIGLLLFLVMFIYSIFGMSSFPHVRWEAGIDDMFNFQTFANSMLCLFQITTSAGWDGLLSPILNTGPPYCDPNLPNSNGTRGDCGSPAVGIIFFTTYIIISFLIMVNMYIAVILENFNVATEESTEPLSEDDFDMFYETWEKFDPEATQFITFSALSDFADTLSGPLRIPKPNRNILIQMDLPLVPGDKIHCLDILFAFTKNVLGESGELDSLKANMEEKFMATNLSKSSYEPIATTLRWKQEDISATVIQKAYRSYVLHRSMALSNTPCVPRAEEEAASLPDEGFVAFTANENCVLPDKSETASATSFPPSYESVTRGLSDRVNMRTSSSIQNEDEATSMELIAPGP

SMILES	IC50 [1] [nM]	IC50 [2] [nM]
Cc1cc(F)ccc1Oc1nnc(C(F)(F)F)cc1C(=O)Nc1cccc(S(C)(=O)=O)n1 [Compound 4]	> 5000	> 5000
COc1cc(F)ccc1Oc1nnc(C(F)(F)F)cc1C(=O)Nc1cccc(-n2cnnc2)c1 [Compound 22]	1000 to 5000	1000 to 5000
Cc1cc(C#N)ccc1Oc1nnc(C(F)(F)F)cc1C(=O)Nc1cccc(S(C)(=O)=O)c1 [Compound 78]	> 5000	> 5000
CSc1cccc(NC(=O)c2cc(C(F)(F)F)nnc2Oc2ccc(C#N)cc2C)c1 [Compound 110]	> 5000	> 5000
COc1cc(NC(=O)c2cc(C(F)(F)F)nnc2Oc2ccc(F)cc2C)ccn1 [Compound 86]	501 to 1000	501 to 1000
COc1ccc(F)cc1Oc1nnc(C(F)(F)F)cc1C(=O)Nc1cccc(S(N)(=O)=O)c1 [Compound 122, 3-(5-Fluoro-2-methoxyphenoxy)-N-(3-sulfamoylphenyl)-6-(trifluoromethyl)pyridazine-4-carboxamide]	201 to 500	501 to 1000
Cc1cc(C(F)(F)F)ccc1Oc1nnc(C(F)(F)F)cc1C(=O)Nc1cccc(S(C)(=O)=O)c1 [Compound 42]	≤ 200	≤ 200
COc1cc(F)ccc1Oc1nnc(C(F)(F)F)cc1C(=O)Nc1ccc(C(N)=O)cc1 [Compound 27]	≤ 200	≤ 200
CS(=O)(=O)c1ccc(F)c(NC(=O)c2cc(C(F)(F)F)nnc2Oc2ccc(F)cc2Cl)c1 [Compound 72]	≤ 200	≤ 200
Cc1cc(F)ccc1Oc1nnc(C(F)(F)F)cc1C(=O)Nc1ccc[n+]([O-])c1 [Compound 61]	> 5000	> 5000
O=C1NCc2ccc(NC(=O)c3cc(C(F)(F)F)nnc3Oc3ccc(F)cc3Cl)cc21 [Compound 69]	> 5000	> 5000
Cc1cc(F)ccc1Oc1nnc(C(F)(F)F)cc1C(=O)Nc1cccc(-n2cncn2)c1 [Compound 9]	1000 to 5000	> 5000
Cc1cc(C#N)ccc1Oc1nnc(C(F)(F)F)cc1C(=O)Nc1cccc(S(C)(=N)=O)c1 (centres unmarked) [Compound 114, 3-(4-Cyano-2-methylphenoxy)-N-(3-(S-methylsulfonimidoyl)phenyl)-6-(trifluoromethyl)pyridazine-4-carboxamide]	≤ 200	≤ 200
NS(=O)(=O)c1cccc(NC(=O)c2cc(C(F)(F)F)nnc2Oc2cc(F)ccc2Cl)c1 [Compound 118, 3-(2-Chloro-5-fluorophenoxy)-N-(3-sulfamoylphenyl)-6-(trifluoromethyl)pyridazine-4-carboxamide]	≤ 200	≤ 200
COc1cc(F)ccc1Oc1nnc(C(F)(F)F)cc1C(=O)Nc1cncc(S(N)(=O)=O)c1 [Compound 49]	≤ 200	≤ 200
COc1cc(F)ccc1Oc1nnc(C(F)(F)F)cc1C(=O)Nc1cnnc(C#N)c1 [Compound 55]	1000 to 5000	1000 to 5000
COc1ccc(F)cc1Oc1nnc(C(F)(F)F)cc1C(=O)Nc1cccc(S(C)(=N)=O)c1 (centres unmarked) [Compound 116]	201 to 500	201 to 500
CS(=N)(=O)c1cccc(NC(=O)c2cc(C(F)(F)F)nnc2Oc2ccc(F)cc2Cl)c1 (centres unmarked) [Compound 96, 3-(2-Chloro-4-fluorophenoxy)-N-(3-(S-methylsulfonimidoyl)phenyl)-6-(trifluoromethyl)pyridazine-4-carboxamide]	501 to 1000	201 to 500
Cc1cc(F)ccc1Oc1nnc(C(F)(F)F)cc1C(=O)Nc1cc[nH]c(=O)c1C [Compound 91, 3-(4-Fluoro-2-methylphenoxy)-N-(3-methyl-2-oxo-1,2-dihydropyridin-4-yl)-6-(trifluoromethyl)pyridazine-4-carboxamide]	> 5000	> 5000

SMILES	IC50 [1] [nM]	IC50 [2] [nM]
COc1cc(C#N)ccc1Oc1nnc(C(F)(F)F)cc1C(=O)Nc1cccc(C(N)=O)c1 [Compound 76]	≤ 200	≤ 200
COc1cc(F)ccc1Oc1nnc(C(F)(F)F)cc1C(=O)Nc1cccc(S(=O)(=O)C2CC2)c1 [Compound 25]	≤ 200	≤ 200
CNC(=O)c1ccc(NC(=O)c2cc(C(F)(F)F)nnc2Oc2ccc(F)cc2OC)cc1 [Compound 127, 3-(4-Fluoro-2-methoxyphenoxy)-N-(4-(methylcarbamoyl)phenyl)-6-(trifluoromethyl)pyridazine-4-carboxamide]	501 to 1000	501 to 1000
CS(=O)(=O)c1cc(NC(=O)c2cc(C(F)(F)F)nnc2Oc2ccc(F)cc2Cl)ccn1 [Compound 65]	501 to 1000	501 to 1000
Cc1cc(-c2cn[nH]c2)ccc1Oc1nnc(C(F)(F)F)cc1C(=O)Nc1cccc(S(C)(=O)=O)c1 [Compound 133, 3-[2-Methyl-4-(1H-pyrazol-4-yl)phenoxy]-N-(3-methylsulfonylphenyl)-6-(trifluoromethyl)pyridazine-4-carboxamide]	> 5000	> 5000
COc1cc(F)ccc1Oc1nnc(C(F)(F)F)cc1C(=O)Nc1cccc(S2(=O)=NCCC2)c1 (centres unmarked) [Compound 45]	201 to 500	201 to 500
COc1cc(F)ccc1Oc1nnc(C(F)(F)F)cc1C(=O)Nc1cccc(S(=O)(=O)C(C)C)c1 [Compound 17]	201 to 500	501 to 1000
Cc1cc(F)ccc1Oc1nnc(C(F)(F)F)cc1C(=O)Nc1ccc(=O)[nH]c1C [Compound 92, 3-(4-Fluoro-2-methylphenoxy)-N-(2-methyl-6-oxo-1,6-dihydropyridin-3-yl)-6-(trifluoromethyl)pyridazine-4-carboxamide]	> 5000	> 5000
CS(=O)(=O)c1cccc(NC(=O)c2cc(C(F)(F)F)nnc2Oc2ccc(F)cc2Cl)c1 [Compound 64]	≤ 200	≤ 200
CS(=N)(=O)c1cc(NC(=O)c2cc(C(F)(F)F)nnc2Oc2ccc(F)cc2Cl)ccn1 (centres unmarked) [Compound 97]	1000 to 5000	1000 to 5000
CS(=O)(=O)c1cccc(NC(=O)c2cc(C(F)(F)F)nnc2Oc2ccc(F)cc2O)c1 [Compound 130, 3-(4-Fluoro-2-hydroxyphenoxy)-N-(3-(methylsulfonyl)phenyl)-6-(trifluoromethyl)pyridazine-4-carboxamide]	1000 to 5000	> 5000
CS(=O)(=O)c1cccc(NC(=O)c2cc(C(F)(F)F)nnc2Oc2ccc(OC(F)F)cc2)c1 [Compound 34]	≤ 200	≤ 200
Cc1ccc(F)cc1Oc1nnc(C(F)(F)F)cc1C(=O)Nc1cc(S(C)(=O)=O)ccc1F [Compound 71]	> 5000	> 5000
NC(=O)c1cncc(NC(=O)c2cc(C(F)(F)F)nnc2Oc2cc(F)ccc2Cl)c1 [Compound 84]	> 5000	> 5000
CS(=O)(=O)c1cccc(NC(=O)c2cc(C(F)(F)F)nnc2Oc2ccc(F)cc2Cl)n1 [Compound 68]	> 5000	> 5000
Cc1cc(F)ccc1Oc1nnc(C(F)(F)F)cc1C(=O)Nc1ccc(S(N)(=O)=O)cc1 [Compound 48]	1000 to 5000	501 to 1000
CS(=O)(=O)c1cncc(NC(=O)c2cc(C(F)(F)F)nnc2Oc2ccc(F)cc2Cl)c1 [Compound 66]	1000 to 5000	> 5000
O=C(Nc1ccc[n+]([O-])c1)c1cc(C(F)(F)F)nnc1Oc1ccc(F)cc1F [Compound 60, 3-(3-(2,4-Difluorophenoxy)-6-(trifluoromethyl)pyridazine-4-carboxamido) pyridine 1-oxide]	1000 to 5000	1000 to 5000
